Read-outs that look alike come from different tables or passages of the source.
Columns and labels:
skin tissue = assay: Measuring oxygen tension in tissue with fluorescent marker (Example 4); format: in vivo; details: fluorescent marker injected into skin area treated with PFC or PFC gel
Procedure: A material which binds oxygen (fluorescent marker) is injected into skin tissue. The combination is fluorescent and the more oxygen that is present, the stronger the fluorescent signal. (representing the oxygen tension in the tissue). First it is determined that fluorescence chemistry is unaffected by the PFCs and poloxamers. Then as a control, the fluorescent marker is injected into the skin, and oxygen tension is obtained. Finally, the same area is treated with a PFC or a PFC gel and oxygen tension is again obtained.

[1] = Physical properties of perfluoro(tert-butylcyclohexane); format: physicochemical
Description: Physical properties of perfluoro(tert-butylcyclohexane) are as follows: […]

[2] = Water solubility and lipophilicity (descriptive); format: physicochemical
[3] = Gas solubility / Henry's Law sorption of oxygen and CO2 in the liquid; format: physicochemical
Procedure: The amount of dissolved oxygen in the liquid is measured after equilibration with a gas. The partial pressure of the gas (here, oxygen) is varied. The partial pressure of oxygen in air is 0.21 atm.
The amount of oxygen dissolved in each when the liquids are at equilibrium with the oxygen in the air can be found from the Henry's Law sorption isotherms for the liquids sketched in FIG. 2.
When the solubility of a gas in a liquid is measured, the solubility is nearly always a linear function of the partial pressure of the gas.

[4] = 25° C.; cited from earlier work
[5] = used for conversion to weight basis

FC(F)(F)C(C(F)(F)F)(C(F)(F)F)C1(F)C(F)(F)C(F)(F)C(F)(F)C(F)(F)C1(F)F [perfluoro(tert-butylcyclohexane)]
oxygen tension in tissue (skin tissue): substantially increases local oxygen tension in the tissue | Kinematic Viscosity (cP) [1]: 5.378 cP | density [1]: 1970 g/L | Vapor Pressure (mmHg) @ 25° C. ([1]; 25° C.): 3.8 mmHg | Vapor Pressure (mmHg) @ 37° C. ([1]; 37° C.): 4.4 mmHg | density [1, 5]: 1966 g/L | lipophilicity [2]: non-lipophilic | solubility in water [2]: non-water soluble | lipophilicity ([2]; at body temperature): only slightly lipophilic | lipophilicity ([2]; at room temperature): not lipophilic | CO2 carried [3]: 196 mL of CO2 per 100 mL of PFC | oxygen carried [3]: about 43 mL of oxygen per 100 mL of PFC | oxygen held in contact with air [3]: about 126 mg O2 | Henry's law constant for oxygen [4]: about 600 mg O2/L/atm

perfluoroisopropyldecalin [APF-200, reference compound]
oxygen tension in tissue (skin tissue): substantially increases local oxygen tension in the tissue

water
density [1, 5]: 1000 g/L | Henry's law constant for oxygen [4]: about 8.3 mg O2/L/atm
